Consider eight compounds from PubChem BioAssay (NCI).

Test systems include SK-MEL-2 melanoma; ACHN renal; SF-539 CNS; UO-31 renal; MDA-MB-435; COLO 205 colon; SNB-75 CNS; SF-268 CNS; NCI-H226 lung; UACC-62 melanoma.
What all share (assay): growth of human tumour cells (NCI), 48 h

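Briefly, cells in 96-well plates were exposed to five compound concentrations for 48 h, and endpoints were estimated by linear interpolation. At the GI50, growth is halved. TGI marks complete inhibition of growth.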

Take `CCOC(=O)c1cc2c(n1Cc1ccccc1)-c1oncc1CC2`: the GI50 in the assay on SK-MEL-2 melanoma was 6.15 µM; in the assay on ACHN renal it was 5.84 µM; in the assay on SF-539 CNS, 4.04 µM; in the assay on UO-31 renal it was 4.32 µM; in the assay with MDA-MB-435 it was 0.878 µM; in the assay with COLO 205 colon, 3.93 µM. Also, the GI50 is 4.68 µM in the assay on SNB-75 CNS, 6.89 µM in the assay on SF-268 CNS, 10.7 µM with NCI-H226 lung and 3.45 µM with UACC-62 melanoma. Also, the TGI in the assay with SK-MEL-2 melanoma was 27.3 µM; in the assay on ACHN renal, 89 µM; with SF-539 CNS, 25.4 µM; in the assay on UO-31 renal, 40.5 µM; in the assay with MDA-MB-435, 4.37 µM; in the assay on COLO 205 colon, 14.2 µM. Moreover, the TGI in the assay on SNB-75 CNS was > 100 µM; with SF-268 CNS, 79 µM; in the assay with NCI-H226 lung it was > 100 µM; in the assay on UACC-62 melanoma, 17.2 µM.

Turning to `Cc1cc(C)nc(SC2=C(Nc3cccc(Cl)c3C)C(=O)N(Cc3ccccc3)C2=O)n1`, the GI50 with SK-MEL-2 melanoma, with ACHN renal, in the assay with SF-539 CNS, in the assay on UO-31 renal, in the assay on MDA-MB-435 and in the assay on COLO 205 colon was > 160 µM in each case. The GI50 with SNB-75 CNS, in the assay on SF-268 CNS, in the assay with NCI-H226 lung and with UACC-62 melanoma was > 160 µM throughout. For the same compound, the TGI with SK-MEL-2 melanoma, with ACHN renal, in the assay with SF-539 CNS, with UO-31 renal, in the assay with MDA-MB-435 and in the assay on COLO 205 colon was > 160 µM throughout. Moreover, the TGI in the assay on SNB-75 CNS, in the assay on SF-268 CNS, in the assay with NCI-H226 lung and in the assay on UACC-62 melanoma was > 160 µM throughout.

In the case of `COc1cccc2[nH]c(-c3ccccn3)nc12`, the TGI in the assay with SK-MEL-2 melanoma, in the assay with ACHN renal, in the assay on SF-539 CNS, with UO-31 renal, with MDA-MB-435 and in the assay with COLO 205 colon was > 100 µM in each case. The TGI in the assay with SNB-75 CNS, in the assay with SF-268 CNS, in the assay with NCI-H226 lung and in the assay with UACC-62 melanoma was > 100 µM throughout.

For the compound `COc1ccc(-c2c(-c3cc(OC)c4c(c3)OCO4)noc2N)cc1`, the GI50 was 0.0324 µM in the assay on SK-MEL-2 melanoma; 0.108 µM with ACHN renal; 0.0339 µM in the assay with SF-539 CNS; 0.463 µM in the assay on UO-31 renal; 0.0347 µM in the assay with COLO 205 colon; 0.0339 µM in the assay on SNB-75 CNS. Further, the GI50 is 0.11 µM in the assay on SF-268 CNS, 0.0883 µM with NCI-H226 lung and 0.05 µM in the assay on UACC-62 melanoma. Besides, the TGI was determined as 21.5 µM in the assay on SK-MEL-2 melanoma; 39.8 µM with ACHN renal; 11.7 µM in the assay on SF-539 CNS; 35.5 µM in the assay on UO-31 renal; 0.0251 µM in the assay on MDA-MB-435; 0.122 µM with COLO 205 colon. Moreover, the TGI was 58.5 µM in the assay with SNB-75 CNS, > 91 µM with SF-268 CNS, 4.07 µM with NCI-H226 lung and 20.7 µM in the assay with UACC-62 melanoma.

With `O=C(c1ccccc1)c1nc2ccc(C(F)(F)F)cc2[n+]([O-])c1C(F)(F)F`, the GI50 in the assay on SK-MEL-2 melanoma is 27.5 µM; in the assay on ACHN renal, 39.3 µM; with SF-539 CNS, 51.1 µM; in the assay with UO-31 renal, 23.8 µM; in the assay on MDA-MB-435 it was 43.8 µM; with COLO 205 colon, 26.8 µM. In addition, the GI50 in the assay with SNB-75 CNS was 37.1 µM; in the assay on SF-268 CNS, 39.9 µM; with NCI-H226 lung, 59 µM; in the assay on UACC-62 melanoma, 33.7 µM. Moreover, the TGI in the assay on SK-MEL-2 melanoma, in the assay on ACHN renal, in the assay on SF-539 CNS, in the assay with UO-31 renal, in the assay with MDA-MB-435 and in the assay with COLO 205 colon was > 100 µM in each case. For the same compound, the TGI in the assay on SNB-75 CNS, in the assay with SF-268 CNS, in the assay with NCI-H226 lung and with UACC-62 melanoma was > 100 µM throughout.

`C=C1C(=O)O[C@H]2[C@H]1CC/C(COC(=O)c1ccc(C#N)cc1)=C\CC[C@@]1(C)O[C@@H]21`: the GI50 was 1.98 µM in the assay on SK-MEL-2 melanoma; 1.85 µM with ACHN renal; 1.64 µM in the assay on SF-539 CNS; 1.57 µM in the assay with UO-31 renal; 1.96 µM with MDA-MB-435; 1.63 µM in the assay with COLO 205 colon. Besides, the GI50 was 7.23 µM with SNB-75 CNS, 2.2 µM in the assay with SF-268 CNS, 2.26 µM in the assay with NCI-H226 lung and 1.95 µM in the assay with UACC-62 melanoma. Moreover, the TGI in the assay on SK-MEL-2 melanoma turned out to be 4.54 µM; with ACHN renal it was 4.26 µM; in the assay on SF-539 CNS, 3.28 µM; with UO-31 renal, 3.34 µM; in the assay on MDA-MB-435, 4.53 µM; with COLO 205 colon, 3.81 µM. In addition, the TGI in the assay with SNB-75 CNS turned out to be 21.4 µM; in the assay with SF-268 CNS it was 5.09 µM; with NCI-H226 lung, 7.6 µM; with UACC-62 melanoma, 4.33 µM.

Regarding `O=[N+]([O-])c1ccc(Sc2c3ccccc3nc3ccccc23)nc1`, the TGI was found to be 38.8 µM in the assay with SK-MEL-2 melanoma; 20.5 µM with ACHN renal; 31.2 µM with SF-539 CNS; 12.4 µM in the assay with UO-31 renal; 21.3 µM in the assay with MDA-MB-435; 6.39 µM in the assay on COLO 205 colon. The TGI in the assay with SNB-75 CNS stood at 29.2 µM; in the assay with SF-268 CNS, 19 µM; in the assay on NCI-H226 lung it was 35.8 µM; with UACC-62 melanoma, 29.5 µM.

Consider `COc1cnc2c(c1)C(=O)c1c-2n(CCCN2CCCC2)c(=O)c2cc(F)ccc12`, for which the GI50 in the assay with SK-MEL-2 melanoma is 1.39 µM; with ACHN renal, 0.155 µM; in the assay with SF-539 CNS, 0.36 µM; in the assay with UO-31 renal it was 0.152 µM; with MDA-MB-435, 0.49 µM; with COLO 205 colon, 0.109 µM. Besides, the GI50 in the assay with SNB-75 CNS is 0.327 µM; with SF-268 CNS it was 0.411 µM; in the assay on NCI-H226 lung it was 0.164 µM; in the assay with UACC-62 melanoma, 0.471 µM. Besides, the TGI with SK-MEL-2 melanoma worked out at 10.4 µM; in the assay on ACHN renal it was 0.461 µM; with SF-539 CNS it was 1.48 µM; in the assay on UO-31 renal, 1.04 µM; with MDA-MB-435, 13.9 µM; with COLO 205 colon, 2.64 µM. Moreover, the TGI in the assay with SNB-75 CNS was 5.44 µM; in the assay on SF-268 CNS it was 13.9 µM; in the assay on NCI-H226 lung it was 0.382 µM; in the assay on UACC-62 melanoma, 2.21 µM.
